# “And” between values parts separate entries of the source, which are not always exact repeats. Identical values can stand only once.
# What was measured:
# [1] = system: A. thaliana ecotype Col-0; experiment: Root growth inhibition assay (primary root elongation); type: in vivo, Arabidopsis thaliana; details: Arabidopsis seedlings with IAA alone, 1 µM IAA
# Protocol: A. thaliana ecotype Col-0 seeds were sterilized in 70% household bleach, 0.2% Tween-20 for 10 min with vigorous agitation and then rinsed 10 times with sterile distilled water. Seeds were stratified at 4 °C in sterile distilled water for 1–2 d. […] Then 8 to 10 plants were aseptically transferred to 12 ×12 cm plates containing 0.5x MS agar medium without sucrose where the medium surface was spread with the bacterial inoculum. […] The plant root tip location was marked on plates after transfer to record the initial root tip position. […] Plates were imaged on a document scanner and primary root elongation was determined using imageJ to quantify the change in root tip position from the initial to the final position.
# Individual bacterial strains were grown on agar plates of the media types specified above at 28 °C. […] The optical density at 600 nm (OD600) was measured for each washed strain and normalized to OD600 of 0.01 in 10 mM MgCl2. […]
# The 175-member synthetic community (SC185-10V) was prepared as described for the 185-member synthetic community used previously[14] by leaving out the 10 isolates from the genus Variovorax. […] The OD600 of the strains in each well was measured and the strains were combined while normalizing the OD600 of each strain in the pool. […] The OD600 values of the 10 cultures were measured and the 10 strains were pooled while normalizing the OD600 of each strain to the same value. […]
# MarR_73 S28A = MarR_73 S28A (Variovorax paradoxus, UniProt C5CSP2, S28A); experiment: biochemical
# Protocol: (§1) The coding sequence for each gene can be found in Supplementary Table 10. MarR expression plasmids were synthesized as codon-optimized genes for E. coli expression by BioBasic in the pLIC-His N-term vector (pMCSG7) and transformed into E. coli BL21 (DE3) Gold cells for expression. […] At an OD600 of 0.8, protein expression was induced by the addition of 0.1 mM IPTG and incubation continued overnight. Cells were collected by centrifugation at 4,500 × g for 20 min at 4 °C in a Sorvall (model RC-3B) swinging bucket centrifuge. Cell pellets were resuspended in buffer A (20 mM potassium phosphate, pH 7.4, 50 mM imidazole, 500 mM NaCl), DNase, lysozyme and a Roche Complete EDTA-free protease inhibitor tablet. Resuspended cells were sonicated and clarified via centrifugation at 17,000 × g for 60 min in a Sorvall (model RC-5B) swinging bucket centrifuge. The lysate was applied to a nickel-nitrilotriacetic acid HP column (GE Healthcare) on an Aktaxpress Fast Performance Liquid Chromatography (FPLC) system (Amersham Bioscience) and washed with buffer A. Protein was eluted with buffer B (20 mM potassium phosphate, pH 7.4, 500 mM imidazole, 500 mM NaCl). Fractions containing the protein of interest were combined and passed over a HiLoadTM 16/60 SuperdexTM 200 gel filtration column. Proteins were eluted in S200 buffer (20 mM HEPES, pH 7.4, 300 mM NaCl). Fractions were combined and concentrated for long-term storage at −80 °C.
# MarR mutant proteins were created by site-directed mutagenesis using primers from Integrated DNA Technologies. […] The mutants were produced and purified using E. coli BL21 (DE3) Gold as described above.
# (§2) All ITC measurements were performed at 25 °C using an Auto-ITC200 microcalorimeter (MicroCal/GE Healthcare). The buffer employed was 20 mM HEPES, pH 7.4, 50 mM NaCl and 0.5% dimethly sulfoxide (DMSO) for protein/ligand binding and 20 mM HEPES, pH 7.4 and 300 mM NaCl for DNA/protein binding experiments. For ligand binding experiments, the calorimetry cell (volume […]) was loaded with MarR wild-type, mutant or homologue protein at a concentration of 50 μM. The syringe was loaded with a ligand concentration of 0.5 or 2 mM. […] A typical injection protocol included a single 0.2 μl first injection followed by 20 1.5 μl injections of the syringe sample into the calorimetry cell. The spacing between injections was kept at 180 s and the reference power at 8 μcal s^−1. […] Two independent ITC measurements were performed for each condition.
# [2] = biological target: Pseudomonas putida 1290 MarR_iacR (Pseudomonas putida, UniProt B0FXI7); experiment: ITC IAA binding to MarR_iacR; details: 25 °C, IacR
# Protocol: as §1, with “Fractions were combined and concentrated for long-term storage at −80 °C.” left out
# [3] = biological target: Variovorax paradoxus CL14 MarR_73 (Variovorax paradoxus, UniProt C5CSP2); experiment: biochemical; type: binding; details: ITC, 25 °C, 20 mM HEPES pH 7.4, 50 mM NaCl, 0.5% DMSO, mean of two measurements ± standard error
# Protocol: as §1, §2
# [4] = biological target: Variovorax paradoxus CL14 MarR_50; experiment: ITC IAA binding to MarR_50 (IadR2); details: 25 °C, IadR2 (MarR_50-like)
# Protocol: as §1, with “Fractions were combined and concentrated for long-term storage at −80 °C.” left out
# Sequence of Variovorax paradoxus CL14 MarR_73 (C5CSP2 entry or part of it): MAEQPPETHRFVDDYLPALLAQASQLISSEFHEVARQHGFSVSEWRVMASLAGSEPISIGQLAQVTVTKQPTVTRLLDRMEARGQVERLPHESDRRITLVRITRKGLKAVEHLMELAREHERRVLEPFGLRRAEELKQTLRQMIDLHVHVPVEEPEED
# Sequence of MarR_73 S28A (C5CSP2 1-158, stated change not applied): as the sequence (C5CSP2 entry or part of it) above
# Sequence of Pseudomonas putida 1290 MarR_iacR (B0FXI7 whole entry): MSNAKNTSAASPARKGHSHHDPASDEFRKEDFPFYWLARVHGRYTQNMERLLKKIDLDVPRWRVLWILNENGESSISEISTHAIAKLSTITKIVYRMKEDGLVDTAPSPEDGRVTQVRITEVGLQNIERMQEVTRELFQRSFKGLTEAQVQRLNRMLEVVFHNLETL
structure (smiles),measurement,setting,value
"O=C(O)Cc1c[nH]c2ccccc12 [IAA, indole-3-acetic acid]",root growth inhibition (RGI) phenotype,[1],severe RGI phenotype
same,Kd,MarR_73 S28A,2.4 ± 0.1 µM
same,N,"MarR_73 S28A; ITC, 25 °C, mutant S28A",0.52 ± 0.01
same,N1,[2],0.590± 0.032
same,Kd,[2]; read-out: KD1,4.45 ± 0.196 µM
same,N (ligand binding stoichiometry to the MarR monomer),[3],0.732 ± 0.036
same,N (ligand binding stoichiometry to the MarR monomer),[3]; listed as Indole-3-Acetic Acid (IAA),0.73 ± 0.04
same,Kd,[3]; KD,0.41 µM and 0.408 µM
same,KD1,[4],No Binding

# Reference: publication PMC9613470, “Diverse MarR bacterial regulators of auxin catabolism in the plant microbiome” (Nature Microbiology, 2022)
